Laboratory results published in US20160263094A1, “Pantoprazole Sodium Composition Lyophilized Powder for Injection” (priority 2013, published 2016).

System: gastric ulcer
Assay: Glacial acetic acid-induced gastric ulcer in SD rats
Format: in vivo
Conditions: 1.3 mg/kg, control group 2 continuous administration 15 d, treatment groups 10 d, three times a day
Method: 50 SD rats are used, made to starve for 24 h before testing. The abdominal cavity is opened under ether anesthesia, a glass tube with the inner diameter of 5 mm and the length of 30 mm is vertically placed on the surface of serosa of the gastric body and 0.2 ml of glacial acetic acid is added into the tube cavity. The glacial acetic acid is dipped out with a cotton swab after 5 min, and the surgical incision is sutured. Normal diet is permitted after the surgery, and animals are randomly divided into 5 groups on the next day: a control group 1 (distilled water), a control group 2 (pantoprazole sodium for injection), with continuous administration for 15 d, a treatment group 1 (embodiment 1), a treatment group 2 (embodiment 2) and a treatment group 3 (embodiment 3); and continuous administration is performed for 10 d, three times a day. The stomach is taken out by anatomy, fixed with formaldehyde, cut open along the greater curvature of the stomach and flat spread on a glass plate, and the transverse diameter d1 and the vertical diameter d2 of an ulcer are measured. The area of the ulcer S (mm2) is calculated according to a formula S=π×(d1/2)×(d2/2) to serve as an ulcer index, and ulcer healing rate and ulcer inhibition rate are calculated.

**Q.** What does the source list for COc1ccnc(C[S+]([O-])c2nc3cc(OC(F)F)ccc3[n-]2)c1OC.[Na+] (stereo not shown) [Control group 2, 5-difluoromethoxy-2-[(3,4-dimethoxy-2-pyridinyl)methyl]sulfinyl-1H-benzimidazole]?
**A.** Healing rate: 90%; Number of healed animals: 9; Ulcer index (x ± s), ulcer area S=π×(d1/2)×(d2/2): 6.3 ± 6.1 mm2; Ulcer inhibition rate: 65.1%
